# Results reported in patent US20200131142A1, “FARNESOID X RECEPTOR AGONISTS AND USES THEREOF” (Metacrine, Inc., priority 2017, published 2020).
# Target: T1, hFXR (Homo sapiens, UniProt Q96RI1)
# T1 construct: expressed in transfected cells; host or cells: CV-1 cells
# T1 sequence (Q96RI1 1-486): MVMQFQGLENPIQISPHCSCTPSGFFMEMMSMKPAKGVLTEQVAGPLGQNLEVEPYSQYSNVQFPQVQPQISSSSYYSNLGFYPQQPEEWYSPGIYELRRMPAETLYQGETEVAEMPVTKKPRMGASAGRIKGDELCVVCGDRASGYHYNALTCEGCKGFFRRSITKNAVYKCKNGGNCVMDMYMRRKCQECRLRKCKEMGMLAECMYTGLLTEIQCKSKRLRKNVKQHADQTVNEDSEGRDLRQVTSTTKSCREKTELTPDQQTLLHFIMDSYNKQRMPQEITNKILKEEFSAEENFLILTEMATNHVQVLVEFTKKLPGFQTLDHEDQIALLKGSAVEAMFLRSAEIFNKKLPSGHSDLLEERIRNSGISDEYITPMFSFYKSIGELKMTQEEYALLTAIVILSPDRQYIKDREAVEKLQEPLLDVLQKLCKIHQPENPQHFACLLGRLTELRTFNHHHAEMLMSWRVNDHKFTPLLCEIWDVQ
# T1 sequence (P19793 1-462 partner): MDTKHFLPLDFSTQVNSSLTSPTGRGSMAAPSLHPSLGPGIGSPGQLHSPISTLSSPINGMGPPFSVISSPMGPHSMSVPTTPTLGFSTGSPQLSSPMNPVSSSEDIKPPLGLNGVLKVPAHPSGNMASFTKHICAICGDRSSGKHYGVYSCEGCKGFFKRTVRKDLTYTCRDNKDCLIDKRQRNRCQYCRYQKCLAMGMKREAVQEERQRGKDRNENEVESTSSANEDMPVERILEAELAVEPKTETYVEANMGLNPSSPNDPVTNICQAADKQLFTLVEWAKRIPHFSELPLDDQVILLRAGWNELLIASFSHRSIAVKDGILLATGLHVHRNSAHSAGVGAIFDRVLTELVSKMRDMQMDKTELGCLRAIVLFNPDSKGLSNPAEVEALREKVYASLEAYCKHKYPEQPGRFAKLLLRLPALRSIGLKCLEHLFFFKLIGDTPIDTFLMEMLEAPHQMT
# Experiment: In Vitro FXR Assay (TK): hFXR/hRXR TK-ECRE-luc reporter in transfected CV-1 cells
# Format: cell-based
# Conditions: 18 hrs incubation, luminescence, compounds with maximum efficacy <25% of the Fexarmine control classified as '+'
# In short: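 Luciferase read-out from lysed CV-1 cells carrying transfected hFXR, hRXR, TK-ECRE-luc and pCMX-YFP. Test compounds, DMSO serial dilutions, were incubated with the cells for 18 h before lysis. Cells grew in charcoal-stripped serum medium.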
row,SMILES,EC50 [nM]
1,"Cc1cc([C@H]2CC[C@H](CN(c3cccc(-c4cnc(C5CC5)s4)c3)C(=O)[C@H]3CC[C@H](O)CC3)CC2)ccc1N(C)S(C)(=O)=O [Compound 9.15, trans-N-(3-(2-Cyclopropylthiazol-5-yl)phenyl)-4-hydroxy-N-((trans-4-(3-methyl-4-(N-methylmethylsulfonamido)phenyl)cyclohexyl)methyl)cyclohexanecarboxamide]",250 to 1000
2,"Cn1ccc2cc([C@H]3CC[C@H](CN(c4cccc(-c5cnc(C6CC6)s5)c4)C(=O)[C@H]4CC[C@H](O)CC4)CC3)ncc21 [Compound 9.17, trans-N-(3-(2-Cyclopropylthiazol-5-yl)phenyl)-4-hydroyx-N-((trans-4-(1-methyl-1H-pyrrolo[2,3-c]pyridin-5-yl)cyclohexyl)methyl)cyclohexanecarboxamide]",250 to 1000
3,"COc1cnc([C@H]2CC[C@H](CN(c3cccc(-c4cnc(C5CC5)s4)c3)C(=O)[C@H]3CC[C@H](O)CC3)CC2)cc1C [Compound 9.24, trans-N-(3-(2-Cyclopropylthiazol-5-yl)phenyl)-4-hydroxy-N-((trans-4-(5-methoxy-4-methylpyridin-2-yl)cyclohexyl)methyl)cyclohexanecarboxamide]",250 to 1000
4,"O=C([C@H]1CC[C@H](O)CC1)N(C[C@H]1CC[C@H](c2ccc3c(c2)OCO3)CC1)c1cccc(-c2cnc(C3CC3)s2)c1 [Compound 9.25, trans-N-((trans-4-(Benzo[d][1,3]dioxol-5-yl)cyclohexyl)methyl)-N-(3-(2-cyclopropylthiazol-5-yl)phenyl)-4-hydroxycyclohexanecarboxamide]",≤ 250
5,"COc1ccc([C@H]2CC[C@H](CN(c3cccc(-c4cnc(C5CC5)s4)c3)C(=O)[C@H]3CC[C@H](O)CC3)CC2)cc1S(C)(=O)=O [Compound 9.26, trans-N-(3-(2-Cyclopropylthiazol-5-yl)phenyl)-4-hydroxy-N-((trans-4-(4-methoxy-3-(methylsulfonyl)phenyl)cyclohexyl)methyl) cyclohexanecarboxamide]",≤ 250
6,"COc1ccc([C@H]2CC[C@H](CN(c3cccc(-c4cnc(C(C)C)s4)c3)C(=O)[C@H]3CC[C@H](O)CC3)CC2)nc1C [Compound 9.27, trans-4-Hydroxy-N-(3-(2-isopropylthiazol-5-yl)phenyl)-N-((trans-4-(5-methoxy-6-methylpyridin-2-yl)cyclohexyl)methyl)cyclohexanecarboxamide]",≤ 250
7,"COc1ccc([C@H]2CC[C@H](CN(c3cc(-c4cnc(C(C)C)s4)ccn3)C(=O)[C@H]3CC[C@H](O)CC3)CC2)cc1C [Compound 9.28, trans-4-Hydroxy-N-(4-(2-isoporpylthiazol-5-yl)pyridin-2-yl)-N-((trans-4-(4-methoxy-3-methylphenyl)cyclohexyl)methyl) cyclohexanecarboxamide]",≤ 250
8,"COc1ccc([C@H]2CC[C@H](CN(c3cc(-c4cnc(C(C)C)s4)ccn3)C(=O)[C@H]3CC[C@H](O)CC3)CC2)nc1C [Compound 9.29, trans-4-Hydroxy-N-(4-(2-isopropylthiazol-5-yl)pyridin-2-yl)-N-((trans-4-(5-methoxy-6-methylpyridin-2-yl)cyclohexyl)methyl)cyclohexanecarboxamide]",≤ 250
9,"COc1ncc(-c2cccc(N(C[C@H]3CC[C@H](c4ccc(OC)c(C)c4)CC3)C(=O)C3CCOCC3)c2)s1 [Compound 9.30, N-((trans-4-(4-Methoxy-3-methylphenyl)cyclohexyl)methyl)-N-(3-(2-methoxythiazol-5-yl)phenyl)tetrahydro-2H-pyran-4-carboxamide]",≤ 250
10,"COc1ncc(-c2cccc(N(C[C@H]3CC[C@H](c4ccc(OC)c(C)c4)CC3)C(=O)[C@H]3CC[C@H](C)CC3)c2)s1 [Compound 9.31, trans-N-((trans-4-(4-Methoxy-3-methylphenyl)cyclohexyl)methyl)-N-(3-(2-methoxythiazol-5-yl)phenyl)-4-methylcyclohexanecarboxamide]",≤ 250
11,"COc1ncc(-c2cccc(N(C[C@H]3CC[C@H](c4ccc(OC)c(C)c4)CC3)C(=O)C3CCC(F)(F)CC3)c2)s1 [Compound 9.32, 4,4-Difluoro-N-((trans-4-(4-methoxy-3-methylphenyl)cyclohexyl)methyl)-N-(3-(2-methoxythiazol-5-yl)phenyl)cyclohexanecarboxamide]",≤ 250
12,"COc1ncc(-c2cccc(N(C[C@H]3CC[C@H](c4ccc(OC)c(C)c4)CC3)C(=O)[C@H]3CC[C@H](OC)CC3)c2)s1 [Compound 9.33, trans-4-Methoxy-N-((trans-4-(4-methoxy-3-methylphenyl)cyclohexyl)methyl)-N-(3-(2-methoxythiazol-5-yl)phenyl)cyclohexanecarboxamide]",≤ 250

# Next, values leading:
row,EC50 [nM],SMILES
1,≤ 250,"COc1ncc(-c2cccc(N(C[C@@H]3CC[C@@H](c4ccc(OC)c(C)c4)C(C)C3)C(=O)[C@H]3CC[C@H](O)CC3)c2)s1 (stereo partly drawn) [Compound 9.12, trans-4-Hydroxy-N-((trans-4-(4-methoxy-3-methylphenyl)-3-methylcyclohexyl)methyl)-N-(3-(2-methoxythiazol-5-yl)phenyl)cyclohexanecarboxamide]"
2,≤ 250,"CN(C)c1ccc(C23CCC(CN(c4cccc(-c5cnc(C6CC6)s5)c4)C(=O)[C@H]4CC[C@H](O)CC4)(CC2)CC3)cn1 [Compound 9.13, trans-N-(3-(2-Cyclopropylthiazol-5-yl)phenyl)-N-((4-(6-(dimethylamino)pyridin-3-yl)bicyclo[2.2.2]octan-1-yl)methyl)-4-hydroxycyclohexanecarboxamide]"
3,≤ 250,"COc1ncc(-c2cccc(N(C[C@H]3CC[C@H](c4ccc5c(c4)OCO5)CC3)C(=O)[C@H]3CC[C@H](O)CC3)c2)s1 [Compound 9.14, trans-N-((trans-4-(Benzo[d][1,3]dioxol-5-yl)cyclohexyl)methyl)-4-hydroxy-N-(3-(2-methoxythiazol-5-yl)phenyl)cyclohexanecarboxamide]"
4,≤ 250,"Cn1ncc2cc([C@H]3CC[C@H](CN(c4cccc(-c5cnc(C6CC6)s5)c4)C(=O)[C@H]4CC[C@H](O)CC4)CC3)ccc21 [Compound 9.16, trans-N-(3-(2-Cyclopropylthiaol-5-yl)phenyl)-4-hydroxy-N-((trans-4-(1-methyl-1H-indazol-5-yl)cyclohexyl)methyl)cyclohexanecarboxamide]"
5,≤ 250,"CCn1cc([C@H]2CC[C@H](CN(c3cccc(-c4cnc(C5CC5)s4)c3)C(=O)[C@H]3CC[C@H](O)CC3)CC2)cn1 [Compound 9.18, trans-N-(3-(2-Cyclopropylthiazol-5-yl)phenyl)-N-((trans-4-(1-ethyl-1H-pyrazol-4-yl)cyclohexyl)methyl)-4-hydroxycyclohexanecarboxamide]"
6,≤ 250,"COc1ccc([C@H]2CC[C@H](CN(c3cccc(-c4cnc(C5CC5)s4)c3)C(=O)[C@H]3CC[C@H](O)CC3)CC2)nc1C [Compound 9.19, trans-N-(3-(2-Cyclopropylthiazol-5-yl)phenyl)-4-hydroxy-N-((trans-4-(5-methoxy-6-methylpyridin-2-yl)cyclohexyl)methyl)cyclohexanecarboxamide]"
7,≤ 250,"COc1ccc([C@H]2CC[C@H](CN(c3cc(-c4cnc(C5CC5)s4)ccn3)C(=O)[C@H]3CC[C@H](O)CC3)CC2)nc1C [Compound 9.20, trans-N-(4-(2-Cyclopropylthiazol-5-yl)pyridin-2-yl)-4-hydroxy-N-((trans-4-(5-methoxy-6-methylpyridin-2-yl)cyclohexyl)methyl)cyclohexanecarboxamide]"
8,≤ 250,"COc1ccc([C@H]2CC[C@H](CN(c3cccc(-c4cnc(C5CC5)s4)c3)C(=O)[C@H]3CC[C@H](O)CC3)CC2)nc1C#N [Compound 9.21, trans-N-((trans-4-(6-Cyano-5-methoxypyridin-2-yl)cyclohexyl)methyl)-N-(3-(2-cyclopropylthiazol-5-yl)phenyl)-4-hydroxycyclohexanecarboxamide]"
9,≤ 250,"COc1ccc([C@H]2CC[C@H](CN(c3cc(-c4cnc(C5CC5)s4)ccn3)C(=O)[C@H]3CC[C@H](O)CC3)CC2)cc1C#N [Compound 9.22, trans-N-((trans-4-(3-Cyano-4-methoxyphenyl)cyclohexyl)methyl)-N-(4-(2-cyclopropylthiazol-5-yl)pyridin-2-yl)-4-hydroxycyclohexanecarboxamide]"
10,≤ 250,"COc1ccc([C@H]2CC[C@H](CN(c3cc(-c4cnc(C5CC5)s4)ccn3)C(=O)[C@H]3CC[C@H](O)CC3)CC2)nc1C#N [Compound 9.23, trans-N-((trans-4-(6-Cyano-5-methoxypyridin-2-yl)cyclohexyl)methyl)-N-(4-(2-cyclopropylthiazol-5-yl)pyridin-2-yl)-4-hydroxycyclohexanecarboxamide]"
